Measured values from patent publication US12534469B2 (CHILDREN'S HOSPITAL MEDICAL CENTER, priority 2020, dated 2026).
Entries after “also recorded” stand apart in the source; their conditions may differ.

Tests used:
FLT3 D835V = biological target: T1, FLT3 D835V (Homo sapiens, UniProt P36888, D835V); assay: DiscoverX KINOMEscan competition binding assay, FLT3 D835V
T1 construct: purchased DiscoverX (KINOMEscan); host or cells: E. coli (T7 phage) or HEK-293
T1 sequence (P36888 27-993 D835V): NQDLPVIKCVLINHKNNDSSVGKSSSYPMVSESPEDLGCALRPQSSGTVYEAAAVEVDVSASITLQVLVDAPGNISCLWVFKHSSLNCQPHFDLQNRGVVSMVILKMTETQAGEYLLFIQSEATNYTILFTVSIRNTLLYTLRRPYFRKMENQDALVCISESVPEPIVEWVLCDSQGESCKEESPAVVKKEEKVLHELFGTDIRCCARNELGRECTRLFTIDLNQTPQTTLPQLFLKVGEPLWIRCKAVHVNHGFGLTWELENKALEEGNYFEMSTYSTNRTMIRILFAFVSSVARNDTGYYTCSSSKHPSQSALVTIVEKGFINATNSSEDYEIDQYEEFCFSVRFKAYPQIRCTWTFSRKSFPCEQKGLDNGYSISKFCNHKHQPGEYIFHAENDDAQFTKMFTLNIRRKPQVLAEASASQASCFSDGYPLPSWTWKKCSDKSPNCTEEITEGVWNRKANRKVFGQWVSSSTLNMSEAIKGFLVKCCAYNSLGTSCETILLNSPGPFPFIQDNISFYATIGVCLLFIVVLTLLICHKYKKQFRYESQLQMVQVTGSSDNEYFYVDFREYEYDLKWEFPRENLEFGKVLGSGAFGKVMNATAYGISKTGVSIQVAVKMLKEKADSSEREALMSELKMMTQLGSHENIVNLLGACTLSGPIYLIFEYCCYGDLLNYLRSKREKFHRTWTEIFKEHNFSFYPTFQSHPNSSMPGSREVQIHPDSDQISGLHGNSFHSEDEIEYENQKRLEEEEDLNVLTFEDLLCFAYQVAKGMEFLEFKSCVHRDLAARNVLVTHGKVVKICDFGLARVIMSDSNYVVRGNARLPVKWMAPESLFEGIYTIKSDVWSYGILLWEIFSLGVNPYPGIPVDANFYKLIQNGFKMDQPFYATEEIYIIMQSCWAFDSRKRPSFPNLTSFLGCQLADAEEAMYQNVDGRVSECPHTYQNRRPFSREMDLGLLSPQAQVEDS
Excerpt: Kinase binding data were obtained for various exemplary compounds prepared according to Examples 1-25 using the DiscoverX KINOMEscan® active site-directed competition binding site-directed assay protocol described below. […] As a result, the data report thermodynamic interaction affinities (Kd values), rather than IC50 values that are dependent on ATP concentrations. The assay uses a DNA-tagged version of the protein kinase, and an immobilized ligand bound to a solid support. Compounds that directly or indirectly prevent kinase binding to the immobilized ligand reduce the amount of kinase captured on the solid support, which is detected using an ultra-sensitive qPCR method. Affinity constants reported from the assay have been reported to be independent of the immobilized ligand used that is coupled to the solid support (See supplemental information in Fabian, M. A. et. al., (2005) Nat. Biotechnol. 23, 329-336; Wodicka, L. M. et. al., (2010) Chem. Biol. 17, 1241-1249.)
Kinase-tagged T7 phage strains were prepared in an E. coli host derived from the BL21 strain. E. coli were grown to log-phase and infected with T7 phage and incubated with shaking at 32° C. until lysis. The lysates were centrifuged and filtered to remove cell debris. The remaining kinases were produced in HEK-293 cells and subsequently tagged with DNA for qPCR detection. […] The liganded beads were blocked with excess biotin and washed with blocking buffer (SeaBlock (Pierce), 1% BSA, 0.05% Tween 20, 1 mM DTT) to remove unbound ligand and to reduce non-specific binding. […] Test compounds were prepared as 111× stocks in 100% DMSO. Kds were determined using an 11-point 3-fold compound dilution series with three DMSO control points. […] The compounds were then diluted directly into the assays such that the final concentration of DMSO was 0.9%. All reactions were performed in polypropylene 384-well plates. Each was a final volume of 0.02 mL. […] The kinase concentration in the eluates was measured by qPCR.
Binding constants (Kds) were calculated with a standard dose-response curve using the Hill equation. […]

MOLM14 (D835Y) cells = assay: Combination drug screening, 10 x 10 matrix, cell viability (Cell Titer Glo); format: cell-based; conditions: for Interaction with Venetoclax / Sum Excess HSA: combination with Venetoclax, 10 x 10 dataset; for Sum Excess HSA: 48 hours
Description: Briefly, 10 nL of compounds were acoustically dispensed into 1536-well white polystyrene tissue culture-treated plates with an Echo 550 acoustic liquid handler (Labcyte). MOLM14 (D835Y) cells were then added to compound-containing plates at a density of 500-cells/well in 5 μL of medium. A 10-point custom concentration range was used for all listed drugs. Plates were incubated for 48 hours at standard incubator conditions covered by a stainless steel gasketed lid to prevent evaporation. 48 h post compound addition, 3 μL of Cell Titer Glo (Promega) were added to each well and plates were incubated at room temperature for 15 minutes with the stainless-steel lid in place. Luminescence readings were taken using a Viewlux imager (PerkinElmer) with a 2 second exposure time per plate.
However, different methodologies may yield different numerical scores, and different definitions of what constitutes a deviation from mere additivity vs true drug synergy.
However, the utility in certain drug combinations vs others should not be distinguished based on cutoffs between HSA scores, because the score itself is only a relative indicator that is completely dependent on experimental design and is not an absolute number. Furthermore, the concept of what constitutes clinically meaningful drug synergy is something that is still being debated, not only between pharmacologists and physicians, but amongst pharmacologists themselves.

| Compound | Kd (FLT3 D835V) [pM] | Interaction with Venetoclax (MOLM14 (D835Y) cells) | Sum Excess HSA (MOLM14 (D835Y) cells) | concentration at which synergy (Delta Bliss score) is highest (MOLM14 (D835Y) cells; combined with 15.6 nM Venetoclax, 10×10 array) [nM] | concentration of compound required to fully potentiate a 7.8 nM concentration of Venetoclax to <5% of the maximum response (MOLM14 (D835Y) cells; 7.8 nM Venetoclax, 10×10 combination) [nM] |
| --- | --- | --- | --- | --- | --- |
| COc1cc2ncc(-c3cccc(N[C@@H]4CCNC4)n3)n2nc1C1CC1 [Compound 97, (R)-6-(6-cyclopropyl-7-methoxyimidazo[1,2-b]pyridazin-3-yl)-N-(pyrrolidin-3-yl)pyridin-2-amine] | 67 |  |  |  |  |
| COc1cc2ncc(-c3cccc(N[C@H]4CNC[C@@H]4C(F)(F)F)n3)n2nc1C1CC1 [Compound 99, 6-(6-cyclopropyl-7-methoxyimidazo[1,2-b]pyridazin-3-yl)-N-((3R,4S)-4-(trifluoromethyl)pyrrolidin-3-yl)pyridin-2-amine] |  | profound synergism; also recorded: Synergistic | −789.4 |  |  |
| COc1cc2ncc(-c3nc(N[C@H]4CNCC[C@@H]4F)c(F)cc3F)n2nc1C1CC1 [Compound 108, 6-(6-cyclopropyl-7-methoxyimidazo[1,2-b]pyridazin-3-yl)-3,5-difluoro-N-((3S,4S)-4-fluoropiperidin-3-yl)pyridin-2-amine] |  | profound synergism | −480.4 | 0.8 to 1.6 |  |
| COc1cc2ncc(-c3nc(N[C@@H]4CCCNC4)c(F)cc3F)n2nc1C1CC1 [Compound 106, (R)-6-(6-cyclopropyl-7-methoxyimidazo[1,2-b]pyridazin-3-yl)-3,5-difluoro-N-(piperidin-3-yl)pyridin-2-amine] |  | profound synergism | −334 |  | 3.1 |
| COc1cc2ncc(-c3cccc(N[C@H]4CNCC[C@@H]4F)n3)n2nc1C1CC1 [Compound 102, 6-(6-cyclopropyl-7-methoxyimidazo[1,2-b]pyridazin-3-yl)-N-((3S,4S)-4-fluoropiperidin-3-yl)pyridin-2-amine] | 110 | profound synergism | −188.8 |  |  |
| COc1cc2ncc(-c3cccc(N[C@H]4CNC[C@@H]4F)n3)n2nc1C1CC1 [Compound 96, 6-(6-cyclopropyl-7-methoxyimidazo[1,2-b]pyridazin-3-yl)-N-((3S,4S)-4-fluoropyrrolidin-3-yl)pyridin-2-amine] | 120 | profound synergism | −543.2 |  |  |
